The source of these data is publication PMC10976173, “Synthesis of 5-Benzylamino and 5-Alkylamino-Substituted Pyrimido[4,5-c]quinoline Derivatives as CSNK2A Inhibitors with Antiviral Activity” (Pharmaceuticals, 2024).

Series [1] in a line: Kinetic solubility in PBS pH 7.4. The series is classed as physicochemical. The note with it: phosphate-buffered saline, pH 7.4, aqueous buffer, kinetic from dmso stock, PBS pH 7.4, 24 h. The protocol: Kinetic solubility assay was conducted using 10 mM DMSO stocks of compounds in phosphate-buffered saline solution (PBS) at pH 7.4 by Analiza, Inc., Cleveland, OH, USA. […] The calculated values were corrected for the background nitrogen in the media and DMSO.

In series [2] the test system is Mouse Hepatitis Virus (MHV). In words: microbe, parasite or virus in culture. The note with it: Murine coronavirus, read-out: MHV IC50. The series is classed as cell-based.
Description: DBT cells were plated in 96-well plates to be 80% confluent at the start of the assay. Test compounds were diluted to 30 µM in DMEM. […] Molnupiravir (10 µM) was included as a positive control. […] After 1 h, MHV-NLuc was added at an MOI of 0.1 in 50 μL DMEM so that the final concentration of the first dilution of compound was 30 μM (T = 0). After 10 h, the media was aspirated, and the cells were washed with PBS and lysed with passive lysis buffer (Promega) for 20 min at room temperature. Relative light units (RLUs) were measured using a luminometer (Promega; GloMax). Triplicate data were analyzed in GraphPad Prism version 9.5.1 to generate IC50 values (Figure S2).
The next series has as its target T1, CSNK2A (CSNK2A2-NLuc) (Homo sapiens, UniProt P19784).
T1 construct: expressed in transfected cells; host or cells: HEK293
The series is described as follows: In-cell CSNK2A target engagement by NanoBRET assay. The format is cell-based. The note with it: for IC50: In-cell target engagement by NanoBRET assay, HEK293 cells; for Designation: active / inactive analogs with 10-fold differences in IC50; for fold increase in CSNK2A potency: compared to 4q.

In series [3] the test system is DiscoverX KinomeSCAN assay panel of >400 human kinases. The settings on record: cited from earlier work; for Kinases Inhibited: Number of kinases showing 90% inhibition at 1 µM in DiscoverX KINOMEscan, ref [6].
Details of series [4]: method as in PMID 37077385. The note with it: Kinetic solubility; ref [6]; cited from earlier work.
Where [5] appears, read: Inhibition of MHV-NLuc in DBT cells.

Converted amounts (≈) assume the structure as drawn. Where two headings read alike, the source gives them in different places.

T1 sequence (P19784 whole entry): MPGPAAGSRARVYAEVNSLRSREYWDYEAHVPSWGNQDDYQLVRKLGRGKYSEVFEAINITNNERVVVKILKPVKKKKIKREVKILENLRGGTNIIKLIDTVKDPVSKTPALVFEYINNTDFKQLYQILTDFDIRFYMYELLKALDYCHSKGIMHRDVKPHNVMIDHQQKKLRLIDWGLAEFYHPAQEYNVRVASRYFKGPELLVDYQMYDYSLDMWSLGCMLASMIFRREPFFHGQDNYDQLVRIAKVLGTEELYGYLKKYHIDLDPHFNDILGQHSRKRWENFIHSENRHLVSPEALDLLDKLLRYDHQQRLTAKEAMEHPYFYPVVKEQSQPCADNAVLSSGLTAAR
Description for CSNK2A (CSNK2A2-NLuc): A transfection complex of DNA at 10 µg/mL was created, consisting of 9 µg/mL of carrier DNA (Promega, Madison, WI, USA) and 1 µg/mL of CSNK2A2-NLuc fusion DNA in Opti-MEM without serum (Gibco). FuGENE HD (Promega) was added at 30 µL/mL to form a lipid/DNA complex. The solution was then mixed and incubated at room temperature for 20 min. […] The following day, the media was removed via aspiration and replaced with 85 μL of Opti-MEM without phenol red. A total of 5 μL per well of 20×-NanoBRET Tracer K10 (Promega) at 5 μM in Tracer Dilution Buffer (Promega N291B) was added to all wells, except the “no tracer” control wells. Test compounds (10 mM in DMSO) were diluted 100× in Opti-MEM media to prepare stock solutions and evaluated at eleven concentrations. A total of 10 μL per well of the 10-fold test compound stock solutions (final assay concentration of 0.1% DMSO) was added. […] 96-well plates containing cells with NanoBRET Tracer K10 and test compounds (100 µL total volume per well) were equilibrated (37 °C/5% CO2) for 2 h. The plates were cooled to room temperature for 15 min. […] A total of 50 μL of the 3× substrate/extracellular NL inhibitor were added to each well. The plates were read within 30 min on a GloMax Discover luminometer (Promega) equipped with 450 nm BP filter (donor) and 600 nm LP filter (acceptor) using 0.3 s integration time. Raw milliBRET (mBRET) values were obtained by dividing the acceptor emission values (600 nm) by the donor emission values (450 nm) and multiplying by 1000. […] The data were first normalized and then fit using Sigmoidal, 4PL binding curve in GraphPad Prism version 9.5.1 to determine IC50 values (Figure S1).

Consider `O=C(O)c1ccc2c(c1)nc(NCC1CCC(F)(F)CC1)c1ncncc12` [Compound 4aa, 5-(((4,4-difluorocyclohexyl)methyl)amino)pyrimido[4,5-c]quinoline-8-carboxylic acid], for which the melting point (usually the temperature, or range, at which the solid turns liquid) lay within 288 to 291 °C. Besides, the solubility – broadly, the dissolved amount per volume that the medium holds – at 24 h in series [1] was determined as 180 µM (≈ 67 µg/mL). Moreover, the IC50 (in general, the concentration at which inhibition is half-maximal) in series [2] (setting [5]) stood at 10000 nM. The compound also had an IC50 on CSNK2A (CSNK2A2-NLuc) of 190 nM.

`CCC(=O)Nc1cc(Nc2cc(NC3CC3)n3ncc(C#N)c3n2)ccc1C` [SGC-CK2-1]: the “Kinases Inhibited” value in series [3] is given as 3/403. The “inhibition of CSNK2A1, CSNK2A2, and STK17B” value in series [3] (at 1 µM, only these kinases of the panel, ref [3]) is reported as 90%.

Take `O=C(O)c1ccc2c(c1)nc(Nc1cccc(Cl)c1)c1ccncc12` [silmitasertib, 5-(3-chlorophenylamino)benzo[c][2,6]naphthyridine-8-carboxylic acid]: the Aqueous Solubility – broadly, the dissolved amount per volume that the medium holds – in series [4] is recorded as 280 µM. Further, in series [3], the “Kinases Inhibited” value is recorded as 28/403.

Regarding `O=C(O)c1ccc2c(c1)nc(NCC1CCCCCC1)c1ncncc12` [Compound 4u, 5-((cycloheptylmethyl)amino)pyrimido[4,5-c]quinoline-8-carboxylic acid], the melting point lay within 280 to 283 °C. The same compound came in with a solubility at 24 h in series [1] of 150 µM (≈ 52.6 µg/mL). The IC50 in series [2] (setting [5]) turned out to be 18000 nM. On CSNK2A (CSNK2A2-NLuc), this compound registered an IC50 of 200 nM.

`O=C(O)c1ccc2c(c1)nc(NCC13CC4CC(CC(C4)C1)C3)c1ncncc12` [Compound 4x, 5-((((3r,5r,7r)-adamantan-1-yl)methyl)amino)pyrimido[4,5-c]quinoline-8-carboxylic acid] returned a melting point of 292 to 296 °C. This compound also showed a solubility at 24 h in series [1] of roughly 10 µM (≈ 3.88 µg/mL). For the same compound, in series [2] (setting [5]), the IC50 was greater than 30000 nM. Half-maximal inhibition against CSNK2A (CSNK2A2-NLuc) (IC50) was put at 140 nM.

With `O=C(O)c1ccc2c(c1)nc(NCC13CCC(CC1)C3)c1ncncc12` [Compound 4w, 5-((bicyclo[2.2.1]heptan-1-ylmethyl)amino)pyrimido[4,5-c]quinoline-8-carboxylic acid], the melting point fell in the range of 291 to 292 °C. The compound further registered a solubility at 24 h in series [1] of 190 µM (≈ 66.2 µg/mL). Further, the IC50 in series [2] (setting [5]) was found to be 17000 nM. The midpoint of inhibition on CSNK2A (CSNK2A2-NLuc), the IC50, lay at 170 nM.

With `O=C(O)c1ccc2c(c1)nc(Nc1ccc3ccccc3c1)c1ncncc12` [Analog-11], in series [4], the “Aqueous Solubility” value is 54 µM. In addition, in series [3], the “Kinases Inhibited” value is given as 10/403.

Turning to `O=C(O)c1ccc2c(c1)nc(NCC1CCCCC1)c1ncncc12` [Compound 4t, 5-((cyclohexylmethyl)amino)pyrimido[4,5-c]quinoline-8-carboxylic acid], the melting point lay in the range of 281 to 283 °C. For the same compound, the concentration in solution in series [1] (solubility at 24 h) was 180 µM (≈ 60.6 µg/mL). Besides, the IC50 in series [2] (setting [5]) stood at 13000 nM. On CSNK2A (CSNK2A2-NLuc), the IC50 amounted to 140 nM and the Designation entry is “Active”.

As to `O=C(O)c1ccc2c(c1)nc(NCc1ccc(Cl)cc1)c1ncncc12` [Compound 4c, 5-((4-chlorobenzyl)amino)pyrimido[4,5-c]quinoline-8-carboxylic acid], the melting point lay in the range of 203 to 205 °C. For the same compound, in series [1], the solubility at 24 h turned out to be 160 µM (≈ 58.4 µg/mL). For the same compound, the IC50 in series [2] (setting [5]) is 13000 nM. The same compound had an IC50 on CSNK2A (CSNK2A2-NLuc) of 130 nM.

As for `CC(C)(C)CNc1nc2cc(C(=O)O)ccc2c2cncnc12` [Compound 4v, 5-(neopentylamino)pyrimido[4,5-c]quinoline-8-carboxylic acid], the melting point lay in the range of 282 to 285 °C. Also, the concentration in solution in series [1] (solubility at 24 h) came to 190 µM (≈ 59 µg/mL). The IC50 at CSNK2A (CSNK2A2-NLuc) amounted to 870 nM.

`O=C(O)c1ccc2c(c1)nc(NCC1CCCC1)c1ncncc12` [Compound 4s, 5-((cyclopentylmethyl)amino)pyrimido[4,5-c]quinoline-8-carboxylic acid] yielded a melting point of 261 to 264 °C. The compound further gave a solubility at 24 h in series [1] of 210 µM (≈ 67.7 µg/mL). Moreover, on CSNK2A (CSNK2A2-NLuc), the concentration for half-maximal inhibition (IC50) was 320 nM and the “fold increase in CSNK2A potency” value is recorded as 3 fold.

Turning to `O=C(O)c1ccc2c(c1)nc(NCC1CCC1)c1ncncc12` [Compound 4r, 5-((cyclobutylmethyl)amino)pyrimido[4,5-c]quinoline-8-carboxylic acid], the melting point is 265 to 268 °C. For the same compound, in series [1], the solubility at 24 h came to 220 µM (≈ 67.8 µg/mL). On CSNK2A (CSNK2A2-NLuc), 410 nM corresponded to half-maximal inhibition (IC50) and the “fold increase in CSNK2A potency” value came to 3 fold.

Consider `O=C(O)c1ccc2c(c1)nc(NCc1ccc(F)cc1)c1ncncc12` [Compound 4g, 5-((4-fluorobenzyl)amino)pyrimido[4,5-c]quinoline-8-carboxylic acid], for which the melting point fell in the range of 235 to 238 °C. Also, in series [1], the solubility at 24 h is 180 µM (≈ 62.7 µg/mL). Further, the IC50 in series [2] (setting [5]) was determined as 10000 nM. Also, the IC50 against CSNK2A (CSNK2A2-NLuc) is 150 nM.

On to `O=C(O)c1ccc2c(c1)nc(NCc1ccncc1)c1ncncc12` [Compound 4p, 5-((pyridin-4-ylmethyl)amino)pyrimido[4,5-c]quinoline-8-carboxylic acid], for which the melting point was 274 to 276 °C. Further, the solubility at 24 h in series [1] was 200 µM (≈ 66.3 µg/mL). Also, at CSNK2A (CSNK2A2-NLuc), it took 14000 nM to reach half-maximal inhibition (IC50).

`O=C(O)c1ccc2c(c1)nc(NC1CCc3ccccc31)c1ncncc12` (stereo not drawn) [Compound 4af, 5-((2,3-dihydro-1H-inden-1-yl)amino)pyrimido[4,5-c]quinoline-8-carboxylic acid] gave a melting point of 270 to 273 °C. Moreover, the solubility at 24 h in series [1] came out at 160 µM (≈ 57 µg/mL). Besides, the IC50 in series [2] (setting [5]) stood at 22000 nM. On CSNK2A (CSNK2A2-NLuc), half-maximal inhibition (IC50) required 230 nM and the Designation entry is “Active”.

In the case of `O=C(O)c1ccc2c(c1)nc(NCc1ccccc1Cl)c1ncncc12` [Compound 4a, 5-((2-chlorobenzyl)amino)pyrimido[4,5-c]quinoline-8-carboxylic acid], the melting point was in the range of 193 to 198 °C. In addition, in series [1], the solubility at 24 h is 140 µM (≈ 51.1 µg/mL). Also, the IC50 on CSNK2A (CSNK2A2-NLuc) stood at 290 nM.

Take `O=C(O)c1ccc2c(c1)nc(NCc1ccccc1)c1ncncc12` [SGC-CK2-2, reference compound]: in series [4], the “Aqueous Solubility” value is 210 µM. Besides, the IC50 in series [2] was determined as 15000 nM.

Regarding `CN(Cc1ccccc1)c1nc2cc(C(=O)O)ccc2c2cncnc12` [Compound 4ac, 5-(benzyl(methyl)amino)pyrimido[4,5-c]quinoline-8-carboxylic acid], the melting point is 200 to 204 °C. Also, the solubility at 24 h in series [1] was found to be 180 µM (≈ 62 µg/mL). On CSNK2A (CSNK2A2-NLuc), half-maximal inhibition (IC50) required 250 nM and the Designation result is “Active”.
